Measurements published in patent US20050250137A1, “Molecular targets of cancer and aging” (priority 2002, published 2005).
“Also recorded” adds a separate entry of the source.

Legend:
[1] = test system: immortal MDAH041 cells; assay: Western blot protein expression after 5-aza-dC, immortal MDAH041; format: cell-based, human; conditions: for p16^INK4a protein upregulation: 5-aza-CdR-treated vs untreated immortal MDAH041; for p21 protein levels: 5-aza-dC treatment of immortal MDAH041
Description: Twenty μg of cell extract was boiled for 5 minutes in sample buffer, electrophoresed on a 15% SDS-polyacrylamide gel, and transferred to nitrocellulose. […] The anti-mouse IgG was incubated with the blot for 1 hour at room temperature. The signal was detected by enhanced chemiluminescence. […] Louis, Mo.). Lysates were incubated on ice for 30 minutes followed by centrifugation at 10,000×g. Protein was quantitated using the Bradford Reagent (Sigma, St. Louis, Mo.). Equal amounts of protein were electrophoresed in an appropriate percentage SDS-polyacrylamide gel (SDS-PAGE) and transferred to nitrocellulose membranes. The membranes were incubated with antibodies as indicated. […] The western blots were then incubated with a horseradish peroxidase-conjugated secondary and developed using SuperSignal West Pico (Pierce, Rockford, Ill.). As a control, parallel western blots were probed with α-Tubulin.

[2] = test system: immortal MDAH041 cells; assay: Senescence phenotype (morphology, senescence associated β-galactosidase at pH 6), immortal MDAH041; format: cell-based, human; conditions: immortal MDAH041 high passage treated with 5AZA-dC (1 μM days 1, 3, 5)
Description: The MDAH041 (p53 frameshift mutation) cell line was derived from primary fibroblasts obtained by skin biopsy from patients with LFS. […] All cells were grown in modified Eagles medium (MEM, Gibco BRL, MD, USA) with 10% fetal calf serum and antibiotics. The CRL1502 cell line was derived from primary fibroblasts obtained by skin biopsy from a normal donor (ATCC 1502, Rockville, Md., USA).

[3] = test system: immortal (high passage) MDAH041 cells
[4] = Western blot, listed as 5AZA-dC
[5] = Western blot, after 5-aza-dC treatment, MDAH041
[6] = Western blot, immortal MDAH041 treated with 5-aza-dC

With `Nc1ncn([C@H]2C[C@H](O)[C@@H](CO)O2)c(=O)n1` [5-aza-dC, 5-aza-2′-deoxycytidine] the “p16^INK4a protein upregulation” value ([1]; Western blot, listed as 5-aza-CdR) was “over 500 fold”, the “p16^INK4a protein upregulation” value [1, 4] was “approximately 500 fold” and the p21 protein levels ([1]; Western blot) was “protein expression of both was induced”. For the same compound, the p21 protein levels [1, 4] was “not regulated”, the IGFBP4 protein [1, 5] was “slight induction; also recorded: little to no induction” and the IGFBPrP1 protein [1, 5] was “little to no induction”. For the same compound, the “p16^INK4a protein expression” value [1, 6] was “protein expression of both was induced”, the “protein levels of STAT1α” value [1, 6] was “increased in response to treatment” and the IGFBP3 protein levels ([1]; Western blot, response to 5-aza-dC, MDAH041) was “increased in response to 5-aza-dC”. For the same compound, the STAT1 protein upregulation ([1]; immortal cells, 5AZA-dC treatment) was 4.7 fold, the “senescent phenotype of treated cells” value [2] was “had flat morphology, contained lipofuscin granules, and showed senescence associated β-galactosidase activity at pH 6” and the “2-5A synthetase induced by interferon OAS-1 expression” value [3] was 76.5 fold. The “2-5 oligoadenylate synthetase 59 kDa OAS-L expression” value [3] was 40.0 fold, the “041 5-aza Ave Signal Log” value [3] was 0.93 and the “(2-5′) oligoadenylate synthetase 59 kDa isoform OAS-L expression” value [3] was 40.0 fold. For the same compound, the “ALDH1A3 expression, 5A” value [3] was 2.8 fold, the “ALDH1A3 expression, IM vs 5-aza-dC, MA” value [3] was 2.8 fold and the Adlican expression [3] was 17.6 fold. For the same compound, the “Aldehyde dehydrogenase 6 expression” value [3] was 4.1 fold, the “Aortic carboxypeptidase-like protein expression” value [3] was 12.3 fold and the “Associated molecule with the SH3 domain of STAM expression” value [3] was 7.6 fold. For the same compound, the “B2-bradykinin receptor, 3 expression” value [3] was 3.8 fold, the “B94 protein (tumor necrosis factor-alpha-inducible) expression” value [3] was 5.5 fold and the “BAC clone RG118D07 from 7q31 expression” value [3] was 5.5 fold. The “BST-2 (bone marrow stroma cell surface gene) expression” value [3] was 38.7 fold, the Beta-thromboglobin-like protein expression [3] was 17.5 fold and the “Bone morphogenetic protein 2A expression” value [3] was 9.9 fold. For the same compound, the “CDNA DKFZp564H142 expression” value [3] was 9.5 fold, the “CIG5 (cytomegalovirus induces interferon-responsive) expression” value [3] was 66.6 fold and the CIG5 vipirin expression [3] was 67.0 fold. The “CIG49 (cytomegalovirus induces interferon-responsive) expression” value [3] was 70.2 fold, the “CIG49 Interferon-induced protein with tetratricopepide repeats 4 expression” value [3] was 70.2 fold and the “CLTB expression, 5A” value [3] was 1.5 fold. The “CLTB expression, IM vs 5-aza-dC, MA” value [3] was 1.5 fold, the “CREG expression, 5A” value [3] was 2.2 fold and the “CREG expression, IM vs 5-aza-dC, MA” value [3] was 2.21 fold. The “CYP1B1 expression, 5A” value [3] was 8.2 fold, the “Carbonic anhydrase precursor (CA 12) expression” value [3] was 8.9 fold and the “Complement cytolysis inhibitor (CLI) expression” value [3] was 5.1 fold. The “Complement factor H expression” value [3] was 6.8 fold, the “Cysteine-rich heart protein expression” value [3] was 8.8 fold and the “Cytokine (GRO-beta, GRO-2) expression” value [3] was 29.6 fold. For the same compound, the “Cytokine (GRO-gamma) expression” value [3] was 56.8 fold, the “DUSP6 (dual specificity MAP kinase-phosphatase) expression” value [3] was 4.6 fold and the “Dickkopf-1 (hdkk-1) expression” value [3] was 14.4 fold. The “Dioxin-inducible cytochrome P450 (CYP1B1) expression” value [3] was 6.9 fold, the “Dual-specificity protein phosphatase expression” value [3] was 12.6 fold and the “FLJ14675 expression, 5A” value [3] was 3.8 fold. For the same compound, the “Factor H homologue expression” value [3] was 7.5 fold, the Fibulin-2 expression [3] was 21.8 fold and the “Gamma-interferon-inducible protein (IP-30) expression” value [3] was 31.2 fold. The “Genes for histones H2B.1 and H2A expression” value [3] was 4.3 fold, the Gravin expression [3] was 12.2 fold and the “HEM45 (interferon-stimulated gene, 20-kd; ISG20) expression” value [3] was 50.2 fold. For the same compound, the “HEM45, ISG-20 expression” value [3] was 50.2 fold, the “HLA class I locus C heavy chain expression” value [3] was 5.7 fold and the “HLA-F, gene for major histocompatibility complex class I F expression” value [3] was 29.4 fold. For the same compound, the “HPS5 expression, 5A” value [3] was 1.6 fold, the “HSPA2 expression, 5A” value [3] was 1.6 fold and the “HSPA2 expression, IM vs 5-aza-dC, MA” value [3] was 1.6 fold. For the same compound, the “HTATIP2 expression, 5A” value [3] was 5.6 fold, the “IGFBP3 expression, IM vs 5-aza-dC, MA” value [3] was 2.48 fold and the “IGFBP4 expression, IM vs 5-aza-dC, MA” value [3] was 3.72 fold. For the same compound, the “Inhibitor of apoptosis protein 1 expression” value [3] was 13.1 fold, the “Insulin-like growth factor binding protein 6 expression” value [3] was 5.9 fold and the “Insulin-like growth factor binding protein-4 expression” value [3] was 3.8 fold. The “Integral membrane glycoprotein LIG-1 (TM4SF1) expression” value [3] was 5.2 fold, the “Interferon regulatory factor 7B expression” value [3] was 17.5 fold and the “Interferon, alpha-inducible protein 27 expression” value [3] was 482.0 fold. For the same compound, the “Interferon-induced p78, Mx1 expression” value [3] was 202 fold, the “Interferon-induced p78, MxB expression” value [3] was 122.1 fold and the “Interferon-inducible 56 Kd protein expression” value [3] was 36.6 fold. The “Interferon-inducible 56 kDa protein expression” value [3] was 36.6 fold, the “Interferon-inducible membrane protein 9-27 (IFITM1) expression” value [3] was 8.8 fold and the “Interferon-inducible peptide (6-16) expression” value [3] was 10.2 fold. For the same compound, the “Interferon-inducible protein 9-27 expression” value [3] was 8.8 fold, the “Interferon-inducible protein (Absent in Melanoma 2, AIM2) expression” value [3] was 21.6 fold and the “Interferon-inducible protein AIM2 (absent in melanoma) expression” value [3] was 21.6 fold. For the same compound, the “Interferon-inducible protein Mx1 expression” value [3] was 42 fold, the “Interferon-inducible protein p78, Mx2 expression” value [3] was 202 fold and the “Interferon-stimulated gene p27 mRNA expression” value [3] was 482.0 fold. The “Interleukin 8 expression” value [3] was 92.7 fold, the “K12 protein precursor (SECTM1) expression” value [3] was 19.6 fold and the KIAA0744 protein expression [3] was 8.6 fold. For the same compound, the “KIAA 1077 protein Sulfatase FP expression” value [3] was 10.9 fold, the “KIAA1750 expression, 5A” value [3] was 2.9 fold and the “KIAA1750 expression, IM vs 5-aza-dC, MA” value [3] was 2.88 fold. For the same compound, the “Keratin 18 expression” value [3] was 13.5 fold, the “Ly-6-related protein (9804) gene expression” value [3] was 34.1 fold and the “MAP1LC3B expression, 5A” value [3] was 1.7 fold. The “Major group rhinovirus receptor (HRV) ICAM expression” value [3] was 28.9 fold, the “Major group rhinovirus receptor (HRV) expression” value [3] was 28.9 fold and the “Melanoma growth stimulatory activity (MGSA) (GRO-1) expression” value [3] was 64.6 fold. The “Microphage migration inhibitory factor (MIF) expression” value [3] was 42.1 fold, the “Microtubular protein 44 expression” value [3] was 17.8 fold and the “Microtubular protein p44 (IFI44) expression” value [3] was 17.8 fold. The “NK4 protein (natural killer cell transcript 4) expression” value [3] was 20.2 fold, the “Neurite outgrowth-promoting protein expression” value [3] was 7.1 fold and the “Neuromedin B Precursor expression” value [3] was 5.6 fold. For the same compound, the “Nk4 protein (natural killer cell transcript 4) expression” value [3] was 20.2 fold, the “OPTN expression, 5A” value [3] was 2.6 fold and the “OPTN expression, IM vs 5-aza-dC, MA” value [3] was 2.6 fold. The Optineurin-like protein expression [3] was 4.2 fold, the “PCTAIRE 2 (pctaire protein kinase) expression” value [3] was 19.3 fold and the “Pig 7 expression” value [3] was 9.4 fold. The “Placental protein 5 (PP5) expression” value [3] was 29.3 fold, the “Placental tissue factor (two forms) expression” value [3] was 8.7 fold and the “Putative monocarboxylate transporter expression” value [3] was 6.3 fold. The “Rad (Ras associated with diabetes) expression” value [3] was 19.7 fold, the “Retinoic acid receptor responder 3 expression” value [3] was 7.1 fold and the “SERPINB2 expression, 5A” value [3] was 4.2 fold. For the same compound, the “SERPINB2 expression, IM vs 5-aza-dC, MA” value [3] was 4.2 fold, the “STAT1α expression, IM vs 5-aza-dC, MA” value [3] was 2.92 fold and the “Signal Transducer Activator of Transcription 1 STAT1 91 kDa expression” value [3] was 7.6 fold. For the same compound, the “Similar to gb: L 19779 HISTONE H2A.1 expression” value [3] was 10.3 fold, the “Skin collagenase MMP1 expression” value [3] was 4.8 fold and the “TESTIN 3 testis derived transcript (3 LIM domains) expression” value [3] was 8.1 fold. The “TNF-related apoptosis inducing ligand TRAIL expression” value [3] was 42.2 fold, the “TNF-related apoptosis inducing ligand, TRAIL expression” value [3] was 42.2 fold and the “TNFAIP2 expression, 5A” value [3] was 5.4 fold. For the same compound, the “TNFAIP2 expression, IM vs 5-aza-dC, MA” value [3] was 5.41 fold, the “Tat-interacting protein TIP30 expression” value [3] was 8.9 fold and the “Transcription Factor MAFF expression” value [3] was 8.1 fold. For the same compound, the “Transcription factor ISGF-3 (Stat 1) expression” value [3] was 7.6 fold, the “Transglutaminase (TGase) expression” value [3] was 144.6 fold and the “Tripartite motif-containing protein 14, TRIM14 expression” value [3] was 6.2 fold. The “Tumor antigen (L6) expression” value [3] was 17.5 fold, the “Tumor necrosis factor-inducible (TSG-6) expression” value [3] was 10.3 fold and the “Tyrosine protein kinase (CAK) gene expression” value [3] was 5.7 fold. The “Ubiquitin-conjugating enzyme E2L6 (UBE2L6) expression” value [3] was 5.9 fold, the “VAMP45 (vesicle-associated membrane protein 5) expression” value [3] was 9.1 fold and the “mRNA expressed in osteoblast expression” value [3] was 32.5 fold. The “uPA gene (urokinase-plasminogen activator gene) expression” value [3] was 4.4 fold.
